According to patent US12673956B2, “Oxadiazolyl dihydropyrano[2,3-b]pyridine inhibitors of HIPK2 for treating kidney fibrosis” (ICAHN SCHOOL OF MEDICINE AT MOUNT SINAI, priority 2021, dated 2026):
Where two headings read alike, the source gives them in different places.

Experiments:
[1] = tested on: Col4a3-deficient mice; assay: Col4a3-deficient mice, model of Alport syndrome (chronic kidney disease); assay type: in vivo; conditions: 60 mg/kg daily PO
Experimental: (§1) Activity of compounds of the invention was confirmed in vivo. Two chronic kidney disease models were employed: (1) Tg26 mice, a model of HIV-associated nephropathy, and (2) Col4a3-null mice, a model of Alport syndrome. Both CKD models are characterized by advanced glomerulosclerosis and tubulointerstitial fibrosis, leading to kidney failure and death approximately between 12 and 20 weeks of age.
Three-week old Col4a3-deficient mice were treated with Example 13 (60 mg/kg daily, PO) or vehicle for 6 weeks. The median survival in vehicle group was 56 days, which was increased to 68 days in the treated group (21% increase).

[2] = tested on: TGF/SMAD Signaling Pathway SBE Reporter—HEK293 Cell Line; assay: Luciferase screen, TGF/SMAD SBE reporter HEK293 cells stimulated with TGFβ; assay type: cell-based; conditions: Homo sapiens
Experimental: For the data in Table 1, the Bight-Glo™ Luciferase Assay System from Promega was used with TGF/SMAD Signaling Pathway SBE Reporter—HEK293 Cell Line from BPSbioscience. On day 1 SBE reporter-HEK293 cells were seeded at a density of 25,000 cells per well into a white clear-bottom 96-well microplate in 100 μl of growth medium without geneticin. The plate was incubated at 37° C. in a CO2 incubator for 24 hrs. The wells were renewed with 60 μL assay medium and treated with test compounds by adding 5 μL of compounds in medium. The concentration of test compound in medium is adjusted so that 5 μL will provide the desired molarity of the solution. For example, if the desired test concentration is 30 µM, then 5 μL of […] compound is added. After 4 hours, TGFβ was added to 10 ng/mL. The plate was incubated at 37° C. in a CO2 incubator overnight (18 hours). One hour prior to assay all medium was replaced. The luciferase assay was run using ONE-Step™ Luciferase Assay System by adding 100 al of ONE-Step™ Luciferase reagent per well, rocking at room temperature for ~15 to 30 minutes and measuring luminescence using a luminometer. The signals were normalized to percentage inhibition, with non-TGF treated cells as 100% inhibition, and the data were processed by Graphpad Prism.

[3] = tested on: Tg26 mice; assay: Tg26 mice, model of HIV-associated nephropathy (chronic kidney disease); assay type: in vivo
From the text: as §1
Tg26 mice of FVB/N genetic background bearing a defective HIV-1 provirus lacking gag-pol have been described by Feng et al. [J Am Soc Nephrol 2009; 20: 2138-2146]. Six-week old heterozygous Tg26 mice are used. Wildtype littermates are used as controls. Mice in the treatment group receive test compound dissolved in 20% NMP, 60% PEG400, and 20% H2O by oral gavage at a dose of 30, 60, or 90 mg/kg body weight per day. Mice in the control group receive the same volume of vehicle. The mice are treated for a total of 4 weeks and sacrificed at age of 10 weeks. […] In another trial, 5- to 6-week old Tg26 mice were treated with Example 13 (90 mg/kg daily, PO) or vehicle for 4 weeks: 38% (8/21 mice) died of kidney failure in the control group within the experimental duration; 0% died in the HIPK2i-174 group (0/18 mice). […] [Because of significant inter-variability of baseline UACR in Tg26 mice at 5-6 weeks of age, the therapeutic effect is calculated based on fold change to baseline for each mouse.]

[4] = SBE reporter-HEK293 cells, TGFβ 10 ng/mL, 18 hours, read-out: Luciferase IC50
[5] = another trial, 90 mg/kg daily PO, 4 weeks
[6] = first trial, four-week treatment, n=8
[7] = first trial, four-week treatment, vs. vehicle

For CC1(C)Oc2ncc(-c3nc(-c4ccc(Cl)cc4)no3)cc2CC1O (stereo in doubt) [Example 13, (S)-6-(3-(4-chlorophenyl)-1,2,4-oxadiazol-5-yl)-2,2-dimethyl-3,4-dihydro-2H-pyrano[2,3-b]pyridin-3-ol], the “increase of median survival vs. vehicle group” value ([1]; 6 weeks) was 21%, the “reduction in kidney fibrosis (picrosirius red staining) in comparison to vehicle group” value ([1]; 6 weeks) was ~ 51% and the “kidney fibrosis assessed by picrosirius red histological staining” value ([1]; 6 weeks, n=9) was 13.7±6.3%. For the same compound, the “reduction of urinary albumin-to-creatinine ratio vs. vehicle” value ([1]; after 6 weeks of treatment) was ~ 45%, the urinary albumin-to-creatinine ratio ([1]; after 6 weeks of treatment) was 41.4 ± 14.2 mg/mg and the median survival ([1]; three-week old mice, 6 weeks) was 68 days. For the same compound, the IC50 [2, 4] was 156 nM, the “reduction in kidney fibrosis (picrosirius red staining) in comparison to vehicle group” value [3, 5] was ~ 37% and the “reduction of urinary albumin-to-creatinine ratio from baseline values” [3, 5] was ~ 57%. For the same compound, the “urinary albumin-to-creatinine ratio, fold change to baseline” value ([3]; another trial, 90 mg/kg daily PO, 4 weeks, n=17) was 0.43±0.28, the “kidney fibrosis assessed by picrosirius red histological staining” value ([3]; another trial, 90 mg/kg daily PO, 4 weeks, n=18) was 2.8±1.2% and the “died of kidney failure within the experimental duration” value ([3]; another trial, 5- to 6-week old Tg26 mice, 90 mg/kg daily PO, 4 weeks, 0/18 mice) was 0%. The “Hazard ratio comparing vehicle vs. treatment” value ([3]; first trial, four-week treatment, Log-rank Mantel-Cox test) was 7.2, the “average fold change in urinary albumin-to-creatinine ratio from week 0 to week 4” value [3, 6] was 0.352 and the “renal fibrosis, average % area” value [3, 6] was 2.540%. For the same compound, the “reduction in average fold change in urinary albumin-to-creatinine ratio” value [3, 7] was ~ 65%, the “reduction in renal fibrosis area” value [3, 7] was ~ 43% and the survival ([3]; first trial, six-week old Tg26 mice, oral gavage 30, 60, or 90 mg/kg per day, four-week treatment, n=20) was 100%.

With CC1(C)C[C@@H](O)c2cc(-c3nc(-c4ccc(Br)cc4)no3)cnc2O1 (single isomer, unassigned) [Example 10] the IC50 [2, 4] was 233 nM.

For CC1(C)Oc2ncc(-c3nc(-c4nccs4)no3)cc2CC1O (stereo in doubt) [Example 16, (S)-2,2-dimethyl-6-(3-(thiazol-2-yl)-1,2,4-oxadiazol-5-yl)-3,4-dihydro-2H-pyrano[2,3-b]pyridin-3-ol], the IC50 [2, 4] was 1110 nM.

Work on CC1(C)Oc2ncc(-c3nc(-c4cc(Cl)cc(Cl)c4)no3)cc2C[C@@H]1O [Example 39, (S)-6-(3-(3,5-dichlorophenyl)-1,2,4-oxadiazol-5-yl)-2,2-dimethyl-3,4-dihydro-2H-pyrano[2,3-b]pyridin-3-ol] yielded an IC50 ([2]; HEK293, 18 h, read-out: Luciferase IC50 nM) of 1250 nM.

Cc1cnc(-c2noc(-c3cnc4c(c3)C[C@@H](O)C(C)(C)O4)n2)s1 [Example 26, (R)-2,2-dimethyl-6-(3-(5-methylthiazol-2-yl)-1,2,4-oxadiazol-5-yl)-3,4-dihydro-2H-pyrano[2,3-b]pyridin-3-ol] gave an IC50 [2, 4] of 708 nM.
